Data from publication PMC9088798, “An Approach to Derive Functional Peptide Inhibitors of Transcription Factor Activity” (JACS Au, 2022).

Key:
[1] = molecular target: T1, cJun bZIP/TRE DNA interaction (Homo sapiens, UniProt P05412); test: EMSA, antagonism of cJun/TRE DNA interaction; assay type: biochemical; settings: cJun bZIP 20 μM, TRE DNA 2 μM, free DNA band intensity, 4°C 30 minutes, pH 8, 1.3% agarose gel; Hill equation; three independent experiments, one SD
T1 construct: The human cJun bZIP domain spans from Arg252 to Leu308; His-SUMO (N, cleaved yes); AS cap (two residues Ala-Ser) (N); GAP cap (three residues Gly-Ala-Pro) (C); made in house; host or cells: E. coli (pET21-His-SUMO plasmid)
T1 sequence (P05412 252-308): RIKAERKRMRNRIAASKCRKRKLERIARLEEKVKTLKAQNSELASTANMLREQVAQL
From the text: Figure 6 HingeW antagonizes cJun/TRE DNA interaction more effectively than A-FosW. (A) CD spectra showing a shift in the TRE DNA peak at ∼281 nm upon addition of cJun, which is reversed by the titration of HingeW into the sample, as HingeW sequesters the cJun in a nonfunctional heterodimer. […] EMSA showing the (C) unbound TRE DNA band shift upon addition of cJun and the subsequent restoration of the unbound DNA band intensity upon titration of either (D) HingeW or (E) A-FosW. (F). For both CD and EMSA, data was averaged from three independent experiments and the plotted error bars indicate one standard deviation.
To provide further evidence of functional antagonism, an electrophoretic mobility shift assay (EMSA) was employed. […] No bound cJun/TRE DNA band was observed as the overall charge of this complex prohibited entry into the gel. Antagonism was therefore best observed by monitoring the intensity of the free DNA band. […]
Control experiments involved the injection of the antagonist peptide sample into the cell containing ITC buffer alone to determine the heat of dilution which was subtracted. The resulting binding data were fit to a one site binding model to extract the enthalpy change of binding (ΔH) and the equilibrium binding constant (K D), from which the free energy change of binding (ΔG) and the entropy change of binding (ΔS) was calculated (41). […]

TRE DNA [2] = test: CD TRE DNA peak, binding of cJun to TRE DNA; settings: cJun 20 μM, TRE DNA 5 μM, ~281 nm
Procedure: The binding of cJun to TRE DNA can be observed by monitoring a DNA absorbance peak in the CD spectrum centered at ∼281 nm.[44] […] The addition of cJun (20 μM) to TRE DNA (5 μM) decreases this DNA peak by 55% as the cJun engages its target TRE site and alters the DNA structure (Figure 6A). Subsequent titration of HingeW into this bound cJun/TRE DNA mixture reverses the peak shift, with the peak increasing as DNA is released. […]
µM) alongside ampicillin, kanamycin and chloramphenicol to maintain the required plasmids, and IPTG (1 mM) to induce protein expression. The library transformants were […]
however a lower stringency is used initially before selection is increased in later steps.
Colonies from this first round of selection were pooled and serially grown in liquid culture at starting OD600 of 0.05 and grown at 37°C with shaking at 200 rpm until the OD600 […]
increased to the optimum 4 µM in subsequent passages. Bacteria containing the most effective functional antagonists were expected to produce higher levels of TRE-mDHFR which provides a growth advantage, and these will dominate the culture. […] This allows the occurrence of library members to be monitored as winner sequences are selected for. […]

TRE DNA [3] = test: EMSA, binding of cJun bZIP to TRE DNA; settings: cJun bZIP 20 μM, TRE DNA 2 μM, relative to DNA alone
Procedure: To provide further evidence of functional antagonism, an electrophoretic mobility shift assay (EMSA) was employed. […] No bound cJun/TRE DNA band was observed as the overall charge of this complex prohibited entry into the gel. Antagonism was therefore best observed by monitoring the intensity of the free DNA band.
Isothermal Titration Calorimetry (ITC): Peptides were studied in an ITC buffer consisting of 10 mM potassium phosphate, 150 mM potassium fluoride and 5 mM TCEP at pH 7.4. Using a MicroCal VP-ITC instrument (Malvern), 10 µL injections of antagonist peptide (HingeW or A-FosW) at 10 µM were injected into the cell containing cJun at 1 µM.
MicroCal Origin software was used to record and analyse the heat change upon addition.
Control experiments involved the injection of the antagonist peptide sample into the cell containing ITC buffer alone to determine the heat of dilution which was subtracted. The resulting binding data were fit to a one site binding model to extract the enthalpy change of binding (ΔH) and the equilibrium binding constant (K D), from which the free energy change of binding (ΔG) and the entropy change of binding (ΔS) was calculated (41).
Thermodynamic parameters are presented as an average of two independent experiments with errors given as one standard deviation. […]

IC50 [1] [µM]	Substance	decrease of TRE DNA CD peak upon addition of cJun (TRE DNA [2]) [%]	free DNA band intensity on adding cJun bZIP (TRE DNA [3])
12.1 ± 1.9	LEQRAEELARENEELEKEAEELEQELDELQAEIEQLEERNYALRKEIEDLQKQLEKL [A-FosW, N-terminal AS and C-terminal GAP caps, 6xHis-tagged]	–	–
–	cJun bZIP: human cJun bZIP domain, Arg252 to Leu308 (target protein)	55	significant reduction in the free DNA band intensity
